Several values for one entry are separate records, joined by “and”; a condition that tells them apart may be missing. Equal values may be shown once.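 96-well plates; 48 h exposure; 5 concentrations. Endpoints by linear interpolation between flanking doses. Not reached: highest tested concentration assigned. Here, GI50 denotes the concentration required for 50% inhibition of growth. TGI marks complete inhibition of growth.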

Test systems include DU-145 prostate; PC-3 prostate; COLO 205 colon; M14 melanoma; RPMI-8226 leukemia; UACC-62 melanoma; NCI-H460 lung; UO-31 renal; HT29 colon; HOP-92 NSCLC.
Test in all cases: NCI-60 cell line screen, 48 h

As for `O=c1[nH]cnc2c1nnn2[C@@H]1O[C@H](CO)[C@@H](O)[C@H]1O`, the GI50 is 1.72 µM in the experiment on DU-145 prostate; 2.77 µM with PC-3 prostate; 3.16 µM in the experiment on COLO 205 colon; 3.54 µM in the experiment on M14 melanoma; 2.68 µM in the experiment on RPMI-8226 leukemia; 5.75 µM with UACC-62 melanoma. Also, the GI50 with NCI-H460 lung is 2.51 µM; in the experiment on UO-31 renal it was 4.46 µM; in the experiment on HT29 colon, 4.51 µM; in the experiment with HOP-92 NSCLC, 2.33 µM. The TGI in the experiment on DU-145 prostate was > 100 µM; with PC-3 prostate, > 100 µM; with COLO 205 colon, 20.6 µM; in the experiment on M14 melanoma, 41.9 µM; in the experiment on RPMI-8226 leukemia it was 25 µM; in the experiment with UACC-62 melanoma it was 84.4 µM. Moreover, the TGI in the experiment on NCI-H460 lung, in the experiment on UO-31 renal, in the experiment on HT29 colon and in the experiment on HOP-92 NSCLC was > 100 µM in each case.
On to `CNC(=O)c1ccc(Nc2nc(OC3CCCC3)c3c(-c4ccc5nc(C)oc5c4)c[nH]c3n2)c(OC)c1`, for which the GI50 in the experiment with DU-145 prostate is 6.31 µM; in the experiment with PC-3 prostate, 3.57 µM; in the experiment with COLO 205 colon it was 0.208 µM; in the experiment with M14 melanoma it was 16.9 µM; with RPMI-8226 leukemia it was 0.481 µM; in the experiment on UACC-62 melanoma it was 2.58 µM. For the same molecule, the GI50 in the experiment on NCI-H460 lung was 0.119 µM; in the experiment on UO-31 renal, 2.97 µM; in the experiment with HT29 colon, 4.99 µM; in the experiment with HOP-92 NSCLC it was 2.54 µM. Moreover, the TGI was > 100 µM with DU-145 prostate; > 100 µM in the experiment on PC-3 prostate; > 100 µM in the experiment with COLO 205 colon; > 100 µM in the experiment with M14 melanoma; > 20.4 µM in the experiment on RPMI-8226 leukemia; > 100 µM in the experiment with UACC-62 melanoma. Besides, the TGI in the experiment with NCI-H460 lung, with UO-31 renal, in the experiment on HT29 colon and in the experiment on HOP-92 NSCLC was > 100 µM throughout.
As to `O=C1CN2CCC1C/C2=C\c1ccnc2c(Cl)cccc12` (configuration not stated), the GI50 is > 100 µM with DU-145 prostate; 89 µM in the experiment on PC-3 prostate; > 100 µM in the experiment with COLO 205 colon; > 100 µM with M14 melanoma; 29.5 µM in the experiment with RPMI-8226 leukemia; > 100 µM in the experiment on UACC-62 melanoma. Moreover, the GI50 is 72.8 µM in the experiment on NCI-H460 lung, 17.7 µM in the experiment on UO-31 renal, 42.6 µM in the experiment on HT29 colon and 37 µM with HOP-92 NSCLC. For the same molecule, the TGI in the experiment on DU-145 prostate, in the experiment on PC-3 prostate, in the experiment with COLO 205 colon, in the experiment with M14 melanoma, with RPMI-8226 leukemia and in the experiment with UACC-62 melanoma was > 100 µM in each case. For the same molecule, the TGI with NCI-H460 lung, in the experiment on UO-31 renal, in the experiment on HT29 colon and in the experiment with HOP-92 NSCLC was > 100 µM each time.
On to `Cc1cc2c(cc1C)[n+](=O)c(C(=O)c1cccs1)c(C(F)(F)F)n2[O-]`, for which the GI50 was 1.05 µM and 2.15 µM in the experiment on DU-145 prostate; 0.827 µM and 7.09 µM in the experiment with PC-3 prostate; 5.36 µM and 4.94 µM in the experiment on COLO 205 colon; 14.6 µM and 13.5 µM in the experiment with M14 melanoma; 1.04 µM and 2.84 µM with RPMI-8226 leukemia; 3.02 µM and 6.56 µM in the experiment with UACC-62 melanoma. Besides, the GI50 in the experiment on NCI-H460 lung is 1.19 µM and 1.86 µM; in the experiment with UO-31 renal, 1.49 µM and 1.07 µM; in the experiment on HT29 colon, 9.97 µM; in the experiment on HOP-92 NSCLC, 1.53 µM and 5.5 µM. The TGI in the experiment with DU-145 prostate was 4.12 µM and 6.87 µM; in the experiment on COLO 205 colon, 41.1 µM and 22.6 µM; in the experiment with M14 melanoma, 50 µM and > 100 µM; in the experiment on RPMI-8226 leukemia, 8.01 µM and 30.6 µM; in the experiment on UACC-62 melanoma, 12.8 µM and 21.7 µM; in the experiment on NCI-H460 lung, 6.35 µM and 16.9 µM. Besides, the TGI in the experiment with UO-31 renal is 5.83 µM and 2.34 µM; in the experiment on HT29 colon it was 50 µM; in the experiment with HOP-92 NSCLC, 10.6 µM and 37.9 µM.
Turning to `COc1cc2c(cc1OCCCCCN1CCN(c3cc(=O)oc4c(C)c(OC)ccc34)CC1)N=C[C@@H]1CCCN1C2=O`, the GI50 in the experiment on DU-145 prostate was < 0.01 µM; with PC-3 prostate it was < 0.01 µM; in the experiment with COLO 205 colon, < 0.01 µM; in the experiment on M14 melanoma, 0.0101 µM; in the experiment with RPMI-8226 leukemia, < 0.01 µM; in the experiment on UACC-62 melanoma it was < 0.01 µM. For the same molecule, the GI50 in the experiment on NCI-H460 lung is 0.0197 µM; in the experiment with UO-31 renal, 0.014 µM; in the experiment on HT29 colon, < 0.01 µM; in the experiment on HOP-92 NSCLC, < 0.01 µM. Moreover, the TGI in the experiment on DU-145 prostate was 5.36 µM; in the experiment with PC-3 prostate it was 0.408 µM; in the experiment on COLO 205 colon, 0.0849 µM; in the experiment on M14 melanoma it was 0.0225 µM; in the experiment with RPMI-8226 leukemia, < 0.0118 µM; in the experiment on UACC-62 melanoma it was 0.0147 µM. Also, the TGI in the experiment on NCI-H460 lung was 1.71 µM; in the experiment on UO-31 renal, 0.0383 µM; in the experiment on HT29 colon, 0.0428 µM; in the experiment on HOP-92 NSCLC, < 0.0141 µM.
Turning to `C[C@]12CC[C@@H]3c4ccc(OCC(=O)O)cc4CC[C@H]3[C@@H]1CCC2=O`, the TGI in the experiment on DU-145 prostate, in the experiment on PC-3 prostate, with COLO 205 colon, in the experiment with M14 melanoma, in the experiment with RPMI-8226 leukemia and with UACC-62 melanoma was > 100 µM throughout. The TGI with NCI-H460 lung, with UO-31 renal, in the experiment on HT29 colon and with HOP-92 NSCLC was > 100 µM each time.
Take `COc1cc2c3c(n(CCCn4ccnc4)c(=O)c2cc1OC)-c1ccccc1C3=O`: the GI50 in the experiment on DU-145 prostate was < 0.0209 µM; in the experiment with PC-3 prostate, 0.169 µM; in the experiment on COLO 205 colon it was 0.0979 µM; with M14 melanoma, < 0.0171 µM; in the experiment on RPMI-8226 leukemia, < 0.0171 µM; with UACC-62 melanoma it was < 0.0133 µM. In addition, the GI50 in the experiment on NCI-H460 lung is < 0.01 µM; in the experiment on UO-31 renal it was < 0.0141 µM; in the experiment on HT29 colon it was < 0.0406 µM; in the experiment on HOP-92 NSCLC, 0.0343 µM. In addition, the TGI was > 100 µM in the experiment with PC-3 prostate; 0.116 µM with M14 melanoma; 0.355 µM in the experiment with RPMI-8226 leukemia; 0.0906 µM in the experiment with UACC-62 melanoma; 4.77 µM in the experiment with NCI-H460 lung; 0.0551 µM with UO-31 renal. In addition, the TGI in the experiment with HT29 colon stood at 0.603 µM; with HOP-92 NSCLC, 3 µM.
For `COc1cc(N)ccc1Nc1c2ccccc2nc2ccccc12`, the GI50 in the experiment on DU-145 prostate was 3.79 µM; with PC-3 prostate, 10.6 µM; in the experiment with COLO 205 colon, 5.55 µM; in the experiment on M14 melanoma it was 16.5 µM; in the experiment with RPMI-8226 leukemia it was 5.27 µM; with UACC-62 melanoma it was 12.9 µM. Besides, the GI50 is 1.38 µM in the experiment on NCI-H460 lung, 5.33 µM in the experiment with UO-31 renal, 3.29 µM with HT29 colon and 4.59 µM in the experiment on HOP-92 NSCLC. The TGI was 14.8 µM with DU-145 prostate; 29.6 µM with PC-3 prostate; 18.4 µM in the experiment with COLO 205 colon; 36.2 µM with M14 melanoma; > 29.9 µM in the experiment on RPMI-8226 leukemia; 31.2 µM in the experiment on UACC-62 melanoma. In addition, the TGI was 7.72 µM in the experiment on NCI-H460 lung, 22.8 µM in the experiment with UO-31 renal, 11 µM in the experiment on HT29 colon and 23 µM with HOP-92 NSCLC.

The values are drawn from PubChem BioAssay (NCI).
